The structures appear in SMILES notation.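 Assay format: 96-well plates, 48-hour exposure. GI50 is the concentration that inhibits growth by half.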 Active and inactive are the calls of the source. No stated cut-off is given here; in the data, active = GI50 up to about 1.1 µM and inactive = higher.

Among the test systems are SK-MEL-2; NCI-H23; OVCAR-4; HOP-92; SF-295; COLO 205; UO-31; SK-MEL-5; U-251; LOX IMVI; RXF 393; HOP-62; TK-10; SNB-19; UACC-62; NCI-H460; SR; CAKI-1; MCF7; MDA-MB-231.
Common to all, as to assay: NCI-60 cell line screen, 48 h

For the compound `C/C(=N\NC(=N)N)C(CN(CC(C)C)CC(C)C)C(=O)Nc1ccc(C)cc1C` (stereo not drawn), the GI50 in the experiment with SK-MEL-2 is > 100 µM (inactive); with NCI-H23, > 100 µM (inactive); in the experiment with OVCAR-4 it was > 100 µM (inactive); in the experiment with HOP-92 it was 59.2 µM (inactive); in the experiment on SF-295 it was > 100 µM (inactive); in the experiment with COLO 205, > 100 µM (inactive). Moreover, the GI50 with UO-31 was 54.7 µM (inactive); in the experiment with SK-MEL-5 it was > 100 µM (inactive); in the experiment on U-251, > 100 µM (inactive); with LOX IMVI, > 100 µM (inactive); in the experiment with RXF 393 it was > 100 µM (inactive); in the experiment with HOP-62, > 100 µM (inactive). In addition, the GI50 with TK-10, in the experiment with SNB-19, in the experiment on UACC-62, in the experiment with NCI-H460, with SR and with CAKI-1 was > 100 µM (inactive) throughout.
As to `COc1cc(C2c3cc4c(cc3[C@@H](Nc3ccc([N+](=O)[O-])cc3)C3COC(=O)[C@H]23)OCO4)cc(OC)c1O` (stereo partly drawn), the GI50 is 4.26 µM (inactive) with SK-MEL-2; 0.569 µM (active) in the experiment on NCI-H23; 12.2 µM (inactive) in the experiment with OVCAR-4; 1.78 µM (inactive) with HOP-92; 0.466 µM (active) with SF-295; 3.79 µM (inactive) in the experiment on COLO 205. Besides, the GI50 in the experiment with UO-31 is 1.52 µM (inactive); in the experiment with SK-MEL-5, 0.586 µM (active); in the experiment on U-251, 0.631 µM (active); in the experiment on LOX IMVI it was 0.459 µM (active); in the experiment on RXF 393 it was 2.02 µM (inactive); in the experiment with HOP-62, 0.321 µM (active). In addition, the GI50 in the experiment on MCF7 is 0.615 µM (active); with TK-10, 2.41 µM (inactive); in the experiment with SNB-19, 0.778 µM (active); with UACC-62, 0.971 µM (active); in the experiment on NCI-H460, 0.0286 µM (active); in the experiment on SR, 0.0552 µM (active). In addition, in the experiment with CAKI-1, the GI50 is 0.438 µM (active).
In the case of `O=C1NC(Nc2ccccc2)=N/C1=C\c1c(Cl)cccc1Cl`, the GI50 with SK-MEL-2 was 18 µM (inactive); in the experiment on NCI-H23, 29.6 µM (inactive); in the experiment on OVCAR-4, 7.18 µM (inactive); in the experiment on HOP-92, 11.9 µM (inactive); in the experiment with SF-295 it was 31.3 µM (inactive); with COLO 205, 31.3 µM (inactive). For the same compound, the GI50 in the experiment on UO-31 was 4.42 µM (inactive); in the experiment on SK-MEL-5 it was 16.3 µM (inactive); in the experiment on U-251 it was 17.9 µM (inactive); in the experiment on LOX IMVI, 62.7 µM (inactive); with RXF 393, 17.8 µM (inactive); in the experiment on HOP-62, 28.2 µM (inactive). Moreover, the GI50 in the experiment with MCF7 was 19.4 µM (inactive); in the experiment with TK-10 it was 18.9 µM (inactive); with SNB-19, 25 µM (inactive); with UACC-62, 21.6 µM (inactive); in the experiment with NCI-H460, 24.9 µM (inactive); in the experiment on SR, 5.09 µM (inactive). For the same compound, in the experiment with CAKI-1, the GI50 is 48.1 µM (inactive).
For `NC(=O)c1ncn(C2OC(CO)C(O)C2O)c1O` (stereo not drawn), the GI50 with SK-MEL-2 was > 100 µM (inactive); in the experiment with OVCAR-4 it was > 100 µM (inactive); with HOP-92, 46.8 µM (inactive); in the experiment with SF-295, > 100 µM (inactive); in the experiment with UO-31, 61.9 µM (inactive); in the experiment with U-251, > 100 µM (inactive). In addition, the GI50 in the experiment with LOX IMVI, in the experiment on RXF 393, with HOP-62, in the experiment with TK-10, with SNB-19 and in the experiment with UACC-62 was > 100 µM (inactive) throughout. Besides, the values for the GI50 in the experiment on NCI-H460, in the experiment with SR and in the experiment on CAKI-1 were 53.7 µM (inactive), 69 µM (inactive) and 83.4 µM (inactive), respectively.
As for `O=C1C(c2ccccc2)=C(c2ccccc2)C(c2ccc(Cc3ccc(C4=C(c5ccccc5)C(=O)C(c5ccccc5)=C4c4ccccc4)cc3)cc2)=C1c1ccccc1`, the GI50 in the experiment with SK-MEL-2 was > 100 µM (inactive); in the experiment on NCI-H23 it was > 100 µM (inactive); with OVCAR-4, > 100 µM (inactive); with HOP-92, > 100 µM (inactive); with SF-295, 69.5 µM (inactive); in the experiment with COLO 205 it was > 100 µM (inactive). For the same compound, the GI50 in the experiment with UO-31, in the experiment on SK-MEL-5, with U-251, with LOX IMVI, in the experiment with RXF 393 and in the experiment with HOP-62 was > 100 µM (inactive) in each case. Moreover, the GI50 in the experiment on TK-10 was 48.6 µM (inactive); in the experiment with SNB-19 it was > 100 µM (inactive); with UACC-62, > 100 µM (inactive); in the experiment with NCI-H460, > 100 µM (inactive); with SR it was > 100 µM (inactive); with CAKI-1 it was > 100 µM (inactive).
On to `NC(CCCCN/C=C1/N=C(c2ccccc2)OC1=O)C(=O)O` (stereo not drawn), for which the GI50 with SK-MEL-2, in the experiment with NCI-H23, in the experiment on OVCAR-4, in the experiment on HOP-92, in the experiment with SF-295 and in the experiment with COLO 205 was > 100 µM (inactive) throughout. The GI50 in the experiment on UO-31, in the experiment with SK-MEL-5, in the experiment on U-251, with LOX IMVI, in the experiment on RXF 393 and in the experiment on HOP-62 was > 100 µM (inactive) each time. The GI50 in the experiment on TK-10, in the experiment with SNB-19, with UACC-62, in the experiment on NCI-H460 and in the experiment with SR was > 100 µM (inactive) each time.
For the compound `O=c1c2ccccc2c(=O)n2n1-c1cccc(c1)CSSCc1cccc-2c1`, the GI50 in the experiment on SK-MEL-2 was > 10 µM (inactive); in the experiment on NCI-H23, > 10 µM (inactive); in the experiment on OVCAR-4 it was > 10 µM (inactive); in the experiment with HOP-92 it was 5.9 µM (inactive); with SF-295, 43.4 µM (inactive); in the experiment on COLO 205, > 10 µM (inactive). Besides, the GI50 in the experiment on UO-31 is > 10 µM (inactive); in the experiment on SK-MEL-5 it was > 10 µM (inactive); with U-251, 92 µM (inactive); in the experiment on LOX IMVI, > 100 µM (inactive); with RXF 393, > 100 µM (inactive); with HOP-62, > 10 µM (inactive). The GI50 in the experiment on TK-10, in the experiment on SNB-19, with UACC-62, in the experiment with NCI-H460, in the experiment on SR and in the experiment with CAKI-1 was > 10 µM (inactive) each time.
Turning to `N#Cc1c(-c2ccccc2)c(C#N)c(=S)n(C2OC(CO)C(O)C(O)C2O)c1N` (stereo not drawn), the GI50 in the experiment on SK-MEL-2 is > 100 µM (inactive); in the experiment with NCI-H23, > 100 µM (inactive); with OVCAR-4, > 100 µM (inactive); in the experiment with MDA-MB-231, > 100 µM (inactive); in the experiment with SF-295, > 100 µM (inactive); in the experiment with SK-MEL-5, 71.6 µM (inactive). For the same compound, the GI50 in the experiment with U-251 was > 100 µM (inactive); in the experiment on LOX IMVI, 86.9 µM (inactive); with RXF 393, > 100 µM (inactive); with SNB-19, > 100 µM (inactive); in the experiment on UACC-62, > 100 µM (inactive); in the experiment with NCI-H460, 94 µM (inactive). For the same compound, the values for the GI50 in the experiment on SR and with CAKI-1 were > 100 µM (inactive) and 92.7 µM (inactive), respectively.

For the origin of these results see ChEMBL document CHEMBL1201862, “PubChem BioAssay data set” (2004).
